Results from patent US6054435A, “6-O-substituted macrolides having antibacterial activity” (priority 1999, dated 2000).
Converted amounts (≈) assume the structure as drawn.

Key:
Experiment in all cases: in vitro antibacterial activity (MIC), agar dilution
Assay type in all cases: cell-based
[1] = test system: Streptococcus Pneumonia ATCC6303; conditions: organism code XX; BHI agar, 35-37° C., 20 to 24 hours; unit assumed
Procedure, shortened: (§1)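 Antibacterial MIC determined by agar dilution in BHI agar with twelve successive concentrations; controls comprised compound-free plates and a same-class reference antibiotic. MIC: lowest concentration giving no growth, slight haze or sparsely isolated colonies.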

[2] = test system: Streptococcus agalactiae CMX 508; conditions: organism code KK; BHI agar, 35-37° C., 20 to 24 hours; unit assumed
Procedure, shortened: as §1

[3] = test system: Micrococcus luteus ATCC 9341; conditions: organism code OO; BHI agar, 35-37° C., 20 to 24 hours; unit assumed
Procedure, shortened: (§2)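 Endpoint: lowest concentration with no growth, slight haze or sparsely isolated colonies at the inoculum spot, judged against a compound-free BHI control. Strains were replicator-inoculated at 1:100 (1:10 for Streptococcus and other slow growers).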

[4] = test system: Haemophilis Influenzae DILL AMP R; conditions: organism code WW; BHI agar, 35-37° C., 20 to 24 hours; unit assumed
Procedure, shortened: as §1

[5] = test system: Staphylococcus aureus ATCC 6538P; conditions: organism code AA; BHI agar, 35-37° C., 20 to 24 hours; unit assumed
Procedure, shortened: as §1

Escherichia coli JUHL = conditions: organism code QQ; BHI agar, 35-37° C., 20 to 24 hours; unit assumed
Procedure, shortened: as §1

[6] = test system: Mycobacterium smegmatis ATCC 114; conditions: organism code UU; BHI agar, 35-37° C., 20 to 24 hours; unit assumed
Procedure, shortened: as §1

[7] = test system: Micrococcus luteus ATCC 4698; conditions: organism code PP; BHI agar, 35-37° C., 20 to 24 hours; unit assumed
Procedure, shortened: as §2

[8] = test system: Staphylococcus aureus A-5278; conditions: organism code CC; BHI agar, 35-37° C., 20 to 24 hours; unit assumed
Procedure, shortened: as §1

[9] = test system: Streptococcus pyogenes PIU 2548; conditions: organism code NN; BHI agar, 35-37° C., 20 to 24 hours; unit assumed
Procedure, shortened: as §1

[10] = test system: Staphylococcus aureus NCTC10649M; conditions: organism code EE; BHI agar, 35-37° C., 20 to 24 hours; unit assumed
Procedure, shortened: as §1

[11] = test system: Streptococcus pyogenes EES61; conditions: organism code LL; BHI agar, 35-37° C., 20 to 24 hours; unit assumed
Procedure, shortened: as §1

[12] = test system: Staphylococcus aureus A5177; conditions: organism code BB; BHI agar, 35-37° C., 20 to 24 hours; unit assumed
Procedure, shortened: as §1

[13] = test system: Staphylococcus epidermidis 3519; conditions: organism code HH; BHI agar, 35-37° C., 20 to 24 hours; unit assumed
Procedure, shortened: as §1

[14] = test system: Staphylococcus aureus 1775; conditions: organism code GG; BHI agar, 35-37° C., 20 to 24 hours; unit assumed
Procedure, shortened: as §1

[15] = test system: Enterococcus faecium ATCC 8043; conditions: organism code II; BHI agar, 35-37° C., 20 to 24 hours; unit assumed
Procedure, shortened: as §1

[16] = test system: Streptococcus pyogenes 930; conditions: organism code MM; BHI agar, 35-37° C., 20 to 24 hours; unit assumed
Procedure, shortened: as §1

Escherichia coli SS = conditions: organism code RR; BHI agar, 35-37° C., 20 to 24 hours; unit assumed
Procedure, shortened: as §1

[17] = test system: Nocardia Asteroides ATCC9970; conditions: organism code VV; BHI agar, 35-37° C., 20 to 24 hours; unit assumed
Procedure, shortened: as §1

[18] = test system: Streptococcus Pneumonia GYR 1171; conditions: organism code YY; BHI agar, 35-37° C., 20 to 24 hours; unit assumed
Procedure, shortened: as §1

[19] = test system: Staphylococcus aureus CMX 553; conditions: organism code FF; BHI agar, 35-37° C., 20 to 24 hours; unit assumed
Procedure, shortened: as §1

Candida albicans CCH 442 = conditions: organism code TT; BHI agar, 35-37° C., 20 to 24 hours; unit assumed
Procedure, shortened: as §1

Escherichia coli DC-2 = conditions: organism code SS; BHI agar, 35-37° C., 20 to 24 hours; unit assumed
Procedure, shortened: as §1

[20] = test system: Streptococcus Pneumonia 5649; conditions: organism code ZZA; BHI agar, 35-37° C., 20 to 24 hours; unit assumed
Procedure, shortened: as §1

[21] = test system: Staphylococcus aureus CMX 642A; conditions: organism code DD; BHI agar, 35-37° C., 20 to 24 hours; unit assumed
Procedure, shortened: as §1

[22] = test system: Streptococcus bovis A-5169; conditions: organism code JJ; BHI agar, 35-37° C., 20 to 24 hours; unit assumed
Procedure, shortened: as §1

[23] = test system: Streptococcus Pneumonia 5979; conditions: organism code ZZ; BHI agar, 35-37° C., 20 to 24 hours; unit assumed
Procedure, shortened: as §1

| Structure (SMILES) | MIC [2] [µg/mL] | MIC [3] [µg/mL] | MIC [5] [µg/mL] | MIC (Escherichia coli JUHL) [µg/mL] | MIC [6] [µg/mL] | MIC [7] [µg/mL] | MIC [8] [µg/mL] | MIC [9] [µg/mL] | MIC [10] [µg/mL] | MIC [11] [µg/mL] | MIC [12] [µg/mL] | MIC [13] [µg/mL] | MIC [14] [µg/mL] | MIC [15] [µg/mL] | MIC (Escherichia coli SS) [µg/mL] | MIC [17] [µg/mL] | MIC [18] [µg/mL] | MIC [19] [µg/mL] | MIC (Candida albicans CCH 442) [µg/mL] | MIC (Escherichia coli DC-2) [µg/mL] | further results |
| --- | --- | --- | --- | --- | --- | --- | --- | --- | --- | --- | --- | --- | --- | --- | --- | --- | --- | --- | --- | --- | --- |
| CC[C@H]1OC(=O)[C@H](C)[C@@H](O[C@H]2C[C@@](C)(OC)[C@@H](O)[C@H](C)O2)[C@H](C)[C@@H](O[C@@H]2O[C@H](C)C[C@H](N(C)C)[C@H]2O)[C@](C)(O)C[C@@H](C)C(=O)[C@H](C)[C@@H](O)[C@]1(C)O [Ery. A, Erythromycin A, reference compound] | 0.05 (≈ 0.0681 µM) | 0.05 (≈ 0.0681 µM) | 0.2 (≈ 0.273 µM) | > 100 | 3.1 (≈ 4.22 µM) | 0.2 (≈ 0.273 µM) | > 100 | 6.2 (≈ 8.45 µM) | 0.39 (≈ 0.531 µM) | 0.05 (≈ 0.0681 µM) | 3.1 (≈ 4.22 µM) | 0.39 (≈ 0.531 µM) | > 100 | 0.05 (≈ 0.0681 µM) | 0.78 (≈ 1.06 µM) | 0.1 (≈ 0.136 µM) | 0.06 (≈ 0.0818 µM) | 0.39 (≈ 0.531 µM) | > 100 | > 100 | MIC [1]: 0.06 µg/mL (≈ 0.0818 µM); MIC [4]: 4 µg/mL (≈ 5.45 µM); MIC [16]: > 100 µg/mL; MIC [20]: 16 µg/mL (≈ 21.8 µM); MIC [21]: 0.39 µg/mL (≈ 0.531 µM); MIC [22]: 0.02 µg/mL (≈ 0.0273 µM) |
| CC[C@H]1OC(=O)[C@H](C)C(=O)[C@H](C)[C@@H](O[C@@H]2O[C@H](C)C[C@H](N(C)C)[C@H]2O)[C@](C)(OCC#Cc2ccc(-c3cccc(Cl)c3)s2)C[C@@H](C)C(=O)[C@H](C)[C@H]2NC(=O)O[C@@]21C [Example 16] | 0.02 (≈ 0.0241 µM) | 0.02 (≈ 0.0241 µM) | 0.1 (≈ 0.121 µM) | > 100 | 0.2 (≈ 0.241 µM) | 0.2 (≈ 0.241 µM) | 25 (≈ 30.1 µM) | 0.2 (≈ 0.241 µM) | 0.2 (≈ 0.241 µM) | 0.1 (≈ 0.121 µM) | 0.2 (≈ 0.241 µM) | 0.2 (≈ 0.241 µM) | 12.5 (≈ 15.1 µM) | 0.1 (≈ 0.121 µM) | 0.39 (≈ 0.47 µM) | 0.2 (≈ 0.241 µM) | 0.03 (≈ 0.0362 µM) | 0.2 (≈ 0.241 µM) | > 100 | > 100 | MIC [1]: 0.03 µg/mL (≈ 0.0362 µM); MIC [23]: 2 µg/mL (≈ 2.41 µM); MIC [4]: 4 µg/mL (≈ 4.82 µM); MIC [20]: 0.25 µg/mL (≈ 0.301 µM); MIC [21]: 0.2 µg/mL (≈ 0.241 µM); MIC [22]: 0.02 µg/mL (≈ 0.0241 µM) |
| CC[C@H]1OC(=O)[C@H](C)C(=O)[C@H](C)[C@@H](O[C@@H]2O[C@H](C)C[C@H](N(C)C)[C@H]2O)[C@](C)(OC/C=C/c2cncc(-c3ccsc3)c2)C[C@@H](C)C(=O)[C@H](C)[C@H]2NC(=O)O[C@@]21C [Example 49] | 0.02 (≈ 0.0251 µM) | 0.02 (≈ 0.0251 µM) | 0.1 (≈ 0.125 µM) | 50 (≈ 62.7 µM) | 0.39 (≈ 0.489 µM) | 0.05 (≈ 0.0627 µM) | > 100 | 0.2 (≈ 0.251 µM) | 0.1 (≈ 0.125 µM) | 0.02 (≈ 0.0251 µM) | 0.05 (≈ 0.0627 µM) | 0.1 (≈ 0.125 µM) | > 100 | 0.05 (≈ 0.0627 µM) | 0.39 (≈ 0.489 µM) | 0.05 (≈ 0.0627 µM) | ≤ 0.004 | 0.05 (≈ 0.0627 µM) | > 100 | 50 (≈ 62.7 µM) | MIC [1]: ≤ 0.004 µg/mL; MIC [23]: 32 µg/mL (≈ 40.1 µM); MIC [16]: 25 µg/mL (≈ 31.3 µM); MIC [20]: 0.03 µg/mL (≈ 0.0376 µM); MIC [21]: 0.1 µg/mL (≈ 0.125 µM); MIC [22]: 0.02 µg/mL (≈ 0.0251 µM) |
| CC[C@H]1OC(=O)[C@H](C)C(=O)[C@H](C)[C@@H](O[C@@H]2O[C@H](C)C[C@H](N(C)C)[C@H]2O)[C@](C)(OC/C=C/c2cnc(-c3ncc(Br)s3)s2)C[C@@H](C)C(=O)[C@H](C)[C@H]2NC(=O)O[C@@]21C [Example 56] | 0.05 (≈ 0.0566 µM) | 0.05 (≈ 0.0566 µM) | 0.2 (≈ 0.226 µM) | > 10 | 0.39 (≈ 0.441 µM) | 0.39 (≈ 0.441 µM) | 100 (≈ 113 µM) | 0.39 (≈ 0.441 µM) | 0.39 (≈ 0.441 µM) | 0.05 (≈ 0.0566 µM) | 0.2 (≈ 0.226 µM) | 0.2 (≈ 0.226 µM) | 50 (≈ 56.6 µM) | 0.05 (≈ 0.0566 µM) | 0.78 (≈ 0.882 µM) | 0.39 (≈ 0.441 µM) | 0.015 (≈ 0.017 µM) | 0.2 (≈ 0.226 µM) | > 100 | > 100 | MIC [1]: 0.015 µg/mL (≈ 0.017 µM); MIC [23]: 4 µg/mL (≈ 4.53 µM); MIC [4]: 8 µg/mL (≈ 9.05 µM); MIC [20]: 0.25 µg/mL (≈ 0.283 µM); MIC [21]: 0.2 µg/mL (≈ 0.226 µM); MIC [22]: 0.05 µg/mL (≈ 0.0566 µM) |
| CC[C@H]1OC(=O)[C@H](C)C(=O)[C@H](C)[C@@H](O[C@@H]2O[C@H](C)C[C@H](N(C)C)[C@H]2O)[C@](C)(OCC#Cc2ccc(-c3cc(Cl)cc(Cl)c3)s2)C[C@@H](C)C(=O)[C@H](C)[C@H]2NC(=O)O[C@@]21C [Example 17] | 0.2 (≈ 0.232 µM) | 0.39 (≈ 0.451 µM) | 0.39 (≈ 0.451 µM) | > 100 | 0.78 (≈ 0.903 µM) | 0.78 (≈ 0.903 µM) | 12.5 (≈ 14.5 µM) | 0.39 (≈ 0.451 µM) | 1.56 (≈ 1.81 µM) | 0.39 (≈ 0.451 µM) | 0.78 (≈ 0.903 µM) | 0.78 (≈ 0.903 µM) | 12.5 (≈ 14.5 µM) | 0.78 (≈ 0.903 µM) | 12.5 (≈ 14.5 µM) | 0.78 (≈ 0.903 µM) | 0.125 (≈ 0.145 µM) | 0.78 (≈ 0.903 µM) | > 100 | > 100 | MIC [23]: 1 µg/mL (≈ 1.16 µM); MIC [4]: 8 µg/mL (≈ 9.26 µM); MIC [16]: 3.1 µg/mL (≈ 3.59 µM); MIC [20]: 1 µg/mL (≈ 1.16 µM); MIC [21]: 0.78 µg/mL (≈ 0.903 µM); MIC [22]: 0.2 µg/mL (≈ 0.232 µM) |
